Measurements published in paper PMC8799717, “Pharmacological targeting PIKfyve and tubulin as an effective treatment strategy for double-hit lymphoma” (Cell Death Discovery, 2022).

Experiments:
Assay in all cases: biochemical
Set-up in all cases: KINOMEscan active-site-directed competition binding panel, 468 kinases, percent of DMSO control at 1 uM
Conditions in all cases: KINOMEscan binding, percent of DMSO control; read-out: Ctrl%
GRK4 = GRK4 (Homo sapiens, UniProt P32298)
PIK3CA(E545K) = PIK3CA(E545K) (Homo sapiens, UniProt P42336, E545K)
EGFR(L858R,T790M) = EGFR(L858R,T790M) (Homo sapiens, UniProt P00533, L858R/T790M)
PKN1 = PKN1 (Homo sapiens, UniProt Q16512)
PKN1, sequence (Q16512 whole entry): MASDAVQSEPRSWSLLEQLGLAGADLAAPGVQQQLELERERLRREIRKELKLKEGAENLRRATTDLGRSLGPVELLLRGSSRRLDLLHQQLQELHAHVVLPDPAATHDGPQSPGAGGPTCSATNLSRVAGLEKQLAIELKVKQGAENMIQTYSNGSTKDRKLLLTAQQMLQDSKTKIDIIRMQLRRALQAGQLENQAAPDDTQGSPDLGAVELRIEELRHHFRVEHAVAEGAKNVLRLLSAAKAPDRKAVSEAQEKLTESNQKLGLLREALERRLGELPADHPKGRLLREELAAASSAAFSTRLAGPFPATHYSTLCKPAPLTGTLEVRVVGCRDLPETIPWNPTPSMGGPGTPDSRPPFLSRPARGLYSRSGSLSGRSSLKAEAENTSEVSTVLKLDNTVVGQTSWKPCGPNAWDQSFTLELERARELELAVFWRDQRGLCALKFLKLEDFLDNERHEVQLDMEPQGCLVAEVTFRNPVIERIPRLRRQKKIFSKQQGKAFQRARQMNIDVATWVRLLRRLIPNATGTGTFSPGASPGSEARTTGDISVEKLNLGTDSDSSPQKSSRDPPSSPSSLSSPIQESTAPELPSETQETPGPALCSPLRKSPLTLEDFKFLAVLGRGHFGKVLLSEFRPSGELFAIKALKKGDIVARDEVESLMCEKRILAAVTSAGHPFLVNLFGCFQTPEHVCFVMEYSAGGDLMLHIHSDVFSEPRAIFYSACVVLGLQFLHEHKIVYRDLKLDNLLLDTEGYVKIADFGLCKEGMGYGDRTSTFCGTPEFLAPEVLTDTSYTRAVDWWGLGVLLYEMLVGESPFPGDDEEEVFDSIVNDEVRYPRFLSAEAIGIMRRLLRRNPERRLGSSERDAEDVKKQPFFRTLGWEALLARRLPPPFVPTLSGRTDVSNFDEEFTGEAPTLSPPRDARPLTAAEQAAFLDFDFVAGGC

PIK3CA(E542K) = PIK3CA(E542K) (Homo sapiens, UniProt P42336, E542K)
FGR = FGR (Homo sapiens, UniProt P09769)
FGR, sequence (P09769 whole entry): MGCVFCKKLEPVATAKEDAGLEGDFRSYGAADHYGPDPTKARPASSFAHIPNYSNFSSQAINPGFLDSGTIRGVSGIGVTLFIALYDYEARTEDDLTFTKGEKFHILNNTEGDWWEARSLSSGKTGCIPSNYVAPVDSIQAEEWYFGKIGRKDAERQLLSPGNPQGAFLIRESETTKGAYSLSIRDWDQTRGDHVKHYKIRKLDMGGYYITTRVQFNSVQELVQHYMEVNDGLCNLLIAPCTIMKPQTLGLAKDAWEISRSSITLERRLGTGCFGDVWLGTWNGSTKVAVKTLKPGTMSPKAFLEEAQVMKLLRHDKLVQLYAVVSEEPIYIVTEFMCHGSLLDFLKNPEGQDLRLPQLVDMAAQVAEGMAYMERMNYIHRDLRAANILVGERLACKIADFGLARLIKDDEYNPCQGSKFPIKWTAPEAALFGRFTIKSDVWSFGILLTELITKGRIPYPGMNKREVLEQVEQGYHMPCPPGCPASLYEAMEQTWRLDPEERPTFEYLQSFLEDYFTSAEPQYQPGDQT

PRKCH = PRKCH (Homo sapiens, UniProt P24723)
PRKCH, sequence (P24723 whole entry): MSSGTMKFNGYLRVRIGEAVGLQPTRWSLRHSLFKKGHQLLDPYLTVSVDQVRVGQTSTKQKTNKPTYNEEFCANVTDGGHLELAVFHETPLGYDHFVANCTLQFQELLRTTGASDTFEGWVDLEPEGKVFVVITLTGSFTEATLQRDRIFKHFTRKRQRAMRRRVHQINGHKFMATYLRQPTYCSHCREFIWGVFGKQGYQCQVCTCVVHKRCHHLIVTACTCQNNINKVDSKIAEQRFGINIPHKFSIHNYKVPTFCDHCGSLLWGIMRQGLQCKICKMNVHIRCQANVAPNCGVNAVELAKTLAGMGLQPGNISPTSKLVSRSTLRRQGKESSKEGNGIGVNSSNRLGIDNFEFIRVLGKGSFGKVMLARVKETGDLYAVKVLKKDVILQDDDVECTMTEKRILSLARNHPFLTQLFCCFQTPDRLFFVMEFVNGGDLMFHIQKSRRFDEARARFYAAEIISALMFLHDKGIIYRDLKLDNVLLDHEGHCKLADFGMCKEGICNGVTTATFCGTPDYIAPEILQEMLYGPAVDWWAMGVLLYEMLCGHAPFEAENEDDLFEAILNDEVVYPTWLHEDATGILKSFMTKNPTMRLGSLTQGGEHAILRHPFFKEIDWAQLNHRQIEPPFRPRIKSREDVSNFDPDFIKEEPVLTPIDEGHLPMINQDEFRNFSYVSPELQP

FLT3(D835V) = FLT3(D835V) (Homo sapiens, UniProt P36888, D835V)
AURKC = AURKC (Homo sapiens, UniProt Q9UQB9)
PRKCD = PRKCD (Homo sapiens, UniProt Q05655)
TIE1 = TIE1 (Homo sapiens, UniProt P35590)
TAOK1 = TAOK1 (Homo sapiens, UniProt Q7L7X3)
DLK = biological target: T1, DLK (Homo sapiens, UniProt Q12852)
T1 construct: gene MAP3K12

MEK2 = biological target: T2, MEK2 (Homo sapiens, UniProt P36507)
T2 construct: gene MAP2K2

SGK2 = SGK2 (Homo sapiens, UniProt Q9HBY8)
PIM3 = PIM3 (Homo sapiens, UniProt Q86V86)
FGFR3 = FGFR3 (Homo sapiens, UniProt P22607)
FGFR3, sequence (P22607 whole entry): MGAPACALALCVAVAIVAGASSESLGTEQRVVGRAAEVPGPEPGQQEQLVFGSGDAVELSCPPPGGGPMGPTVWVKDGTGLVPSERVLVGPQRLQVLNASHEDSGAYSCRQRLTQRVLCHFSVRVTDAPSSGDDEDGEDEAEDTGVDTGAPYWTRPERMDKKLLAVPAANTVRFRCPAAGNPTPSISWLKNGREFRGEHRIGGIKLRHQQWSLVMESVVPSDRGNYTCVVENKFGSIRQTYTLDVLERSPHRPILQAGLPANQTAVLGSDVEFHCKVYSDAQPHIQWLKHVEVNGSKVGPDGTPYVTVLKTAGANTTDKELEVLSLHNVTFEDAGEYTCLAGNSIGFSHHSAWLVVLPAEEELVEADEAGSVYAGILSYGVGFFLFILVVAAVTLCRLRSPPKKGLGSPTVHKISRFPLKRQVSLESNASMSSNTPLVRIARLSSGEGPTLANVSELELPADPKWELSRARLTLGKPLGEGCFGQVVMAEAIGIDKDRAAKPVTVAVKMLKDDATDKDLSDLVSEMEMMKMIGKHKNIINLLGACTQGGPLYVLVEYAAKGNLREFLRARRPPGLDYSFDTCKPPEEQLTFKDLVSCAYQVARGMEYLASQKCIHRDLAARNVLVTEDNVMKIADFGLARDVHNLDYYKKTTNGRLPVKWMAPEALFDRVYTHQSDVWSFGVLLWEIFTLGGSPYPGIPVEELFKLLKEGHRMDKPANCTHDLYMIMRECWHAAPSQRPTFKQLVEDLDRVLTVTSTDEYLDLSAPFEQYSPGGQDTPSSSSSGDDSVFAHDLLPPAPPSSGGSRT

KIT(V559D,T670I) = KIT(V559D,T670I) (Homo sapiens, UniProt P10721, T670I/V559D)
HIPK1 = HIPK1 (Homo sapiens, UniProt Q86Z02)
HIPK1, sequence (Q86Z02 whole entry): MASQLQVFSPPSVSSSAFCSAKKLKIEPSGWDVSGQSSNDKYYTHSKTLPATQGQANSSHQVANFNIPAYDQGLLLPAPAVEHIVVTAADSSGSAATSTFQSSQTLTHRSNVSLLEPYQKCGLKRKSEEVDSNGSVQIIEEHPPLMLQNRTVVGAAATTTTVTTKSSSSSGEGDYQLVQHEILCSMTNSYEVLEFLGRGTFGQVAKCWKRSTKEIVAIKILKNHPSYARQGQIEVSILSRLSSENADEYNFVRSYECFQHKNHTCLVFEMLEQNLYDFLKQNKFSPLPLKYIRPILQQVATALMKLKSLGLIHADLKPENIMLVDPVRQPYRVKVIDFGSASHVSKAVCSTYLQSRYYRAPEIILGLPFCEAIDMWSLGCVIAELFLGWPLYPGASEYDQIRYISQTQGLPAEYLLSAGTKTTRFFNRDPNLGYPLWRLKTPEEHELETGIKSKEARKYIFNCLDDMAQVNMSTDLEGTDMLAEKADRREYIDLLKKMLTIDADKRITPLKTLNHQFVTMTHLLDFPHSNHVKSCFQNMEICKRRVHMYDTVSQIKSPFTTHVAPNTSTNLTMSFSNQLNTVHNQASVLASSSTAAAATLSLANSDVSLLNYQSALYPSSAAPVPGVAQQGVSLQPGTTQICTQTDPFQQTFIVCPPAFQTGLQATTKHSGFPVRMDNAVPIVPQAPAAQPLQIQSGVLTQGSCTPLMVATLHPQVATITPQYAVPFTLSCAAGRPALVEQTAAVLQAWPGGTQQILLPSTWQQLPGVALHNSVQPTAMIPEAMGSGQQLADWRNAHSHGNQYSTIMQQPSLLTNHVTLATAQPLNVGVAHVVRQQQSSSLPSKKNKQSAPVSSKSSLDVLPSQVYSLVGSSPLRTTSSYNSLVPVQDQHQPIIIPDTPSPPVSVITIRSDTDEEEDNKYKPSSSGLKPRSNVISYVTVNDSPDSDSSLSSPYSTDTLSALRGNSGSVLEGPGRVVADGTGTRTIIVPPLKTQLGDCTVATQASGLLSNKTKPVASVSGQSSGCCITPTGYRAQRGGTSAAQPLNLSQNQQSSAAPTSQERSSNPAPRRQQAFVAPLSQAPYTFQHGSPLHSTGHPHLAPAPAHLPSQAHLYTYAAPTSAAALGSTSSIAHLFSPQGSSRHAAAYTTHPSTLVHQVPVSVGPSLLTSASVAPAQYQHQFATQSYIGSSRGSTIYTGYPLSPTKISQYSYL

[1] = biological target: T3, TYK2(JH2domain-pseudokinase) (Homo sapiens, UniProt P29597)
T3 construct: JH2domain-pseudokinase

MAP3K2 = MAP3K2 (Homo sapiens, UniProt Q9Y2U5)
MAP3K2, sequence (Q9Y2U5 whole entry): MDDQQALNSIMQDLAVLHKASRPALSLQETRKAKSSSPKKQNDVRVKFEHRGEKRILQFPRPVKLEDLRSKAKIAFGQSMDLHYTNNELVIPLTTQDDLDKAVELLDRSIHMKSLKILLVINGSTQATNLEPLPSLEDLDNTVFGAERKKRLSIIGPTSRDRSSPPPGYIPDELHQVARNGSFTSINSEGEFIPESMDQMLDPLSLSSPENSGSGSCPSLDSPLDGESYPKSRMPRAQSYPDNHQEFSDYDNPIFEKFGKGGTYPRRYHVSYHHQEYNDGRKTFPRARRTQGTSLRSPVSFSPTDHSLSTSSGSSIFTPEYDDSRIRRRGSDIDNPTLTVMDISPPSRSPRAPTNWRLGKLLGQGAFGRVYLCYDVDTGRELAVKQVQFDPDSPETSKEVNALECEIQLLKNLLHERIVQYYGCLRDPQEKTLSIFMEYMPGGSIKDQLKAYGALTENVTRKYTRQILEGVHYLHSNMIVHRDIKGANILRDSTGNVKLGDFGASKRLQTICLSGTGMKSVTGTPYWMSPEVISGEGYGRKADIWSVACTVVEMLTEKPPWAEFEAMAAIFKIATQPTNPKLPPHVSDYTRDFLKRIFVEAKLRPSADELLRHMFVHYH

CASK = CASK (Homo sapiens, UniProt O14936)
CSNK1G2 = CSNK1G2 (Homo sapiens, UniProt P78368)
FGFR1 = FGFR1 (Homo sapiens, UniProt P11362)

Structure (SMILES): Cc1ccc(NC(=O)c2cccc(C(F)(F)F)c2)cc1Nc1cc(-c2cccnc2)nc2[nH]ccc12 [HZX-02-059]
- remaining binding at 1 µM (GRK4): 83%
- remaining binding at 1 µM (PIK3CA(E545K)): 63%
- remaining binding at 1 µM (EGFR(L858R,T790M)): 79%
- remaining binding at 1 µM (PKN1): 93%
- remaining binding at 1 µM (PIK3CA(E542K)): 56%
- remaining binding at 1 µM (FGR): 92%
- remaining binding at 1 µM (PRKCH): 90%
- remaining binding at 1 µM (FLT3(D835V)): 100%
- remaining binding at 1 µM (AURKC): 75%
- remaining binding at 1 µM (PRKCD): 96%
- remaining binding at 1 µM (TIE1): 100%
- remaining binding at 1 µM (TAOK1): 100%
- remaining binding at 1 µM (DLK): 100%
- remaining binding at 1 µM (MEK2): 100%
- remaining binding at 1 µM (SGK2): 99%
- remaining binding at 1 µM (PIM3): 89%
- remaining binding at 1 µM (FGFR3): 86%
- remaining binding at 1 µM (KIT(V559D,T670I)): 80%
- remaining binding at 1 µM (HIPK1): 74%
- remaining binding at 1 µM [1]: 92%
- remaining binding at 1 µM (MAP3K2): 74%
- remaining binding at 1 µM (CASK): 92%
- remaining binding at 1 µM (CSNK1G2): 96%
- remaining binding at 1 µM (FGFR1): 93%
